Test results published in ChEMBL document CHEMBL1201862, “PubChem BioAssay data set” (2004).
Calls of active or inactive are those of the source.

Key:
[1] = molecular target: T1, Mannose-6-phosphate isomerase (Homo sapiens, UniProt P34949); test: MPI enzyme activity inhibition – biochemical, fluorescence intensity, coupled assay, primary screen (AID 1209)
T1 sequence (P34949 whole entry): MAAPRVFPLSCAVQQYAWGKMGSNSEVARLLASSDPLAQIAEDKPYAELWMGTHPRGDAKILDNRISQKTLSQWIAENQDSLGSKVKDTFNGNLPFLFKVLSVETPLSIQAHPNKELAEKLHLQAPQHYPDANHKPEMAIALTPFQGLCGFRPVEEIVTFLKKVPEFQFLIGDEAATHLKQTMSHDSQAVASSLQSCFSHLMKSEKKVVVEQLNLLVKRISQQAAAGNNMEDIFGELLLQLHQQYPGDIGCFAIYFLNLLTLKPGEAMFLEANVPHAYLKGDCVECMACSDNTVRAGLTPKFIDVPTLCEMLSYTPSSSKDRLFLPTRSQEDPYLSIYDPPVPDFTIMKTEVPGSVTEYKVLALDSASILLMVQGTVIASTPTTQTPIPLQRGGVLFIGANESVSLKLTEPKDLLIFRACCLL

[2] = molecular target: T2, Heat shock factor protein 1 (Mus musculus, UniProt P38532); test: enhancement of HSF1-driven luciferase signal – cell-based, NIH3T3, luminescence, dose retest, confirmation (AID 435004); format: functional;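 note: stress induced by proteasome inhibitor MG132 added 30 min after compound; luciferase reporter driven by HSF1 response element in NIH3T3 cells; actives raise luminescence as potentiators of the MG132 stress response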
T2 sequence (P38532 whole entry): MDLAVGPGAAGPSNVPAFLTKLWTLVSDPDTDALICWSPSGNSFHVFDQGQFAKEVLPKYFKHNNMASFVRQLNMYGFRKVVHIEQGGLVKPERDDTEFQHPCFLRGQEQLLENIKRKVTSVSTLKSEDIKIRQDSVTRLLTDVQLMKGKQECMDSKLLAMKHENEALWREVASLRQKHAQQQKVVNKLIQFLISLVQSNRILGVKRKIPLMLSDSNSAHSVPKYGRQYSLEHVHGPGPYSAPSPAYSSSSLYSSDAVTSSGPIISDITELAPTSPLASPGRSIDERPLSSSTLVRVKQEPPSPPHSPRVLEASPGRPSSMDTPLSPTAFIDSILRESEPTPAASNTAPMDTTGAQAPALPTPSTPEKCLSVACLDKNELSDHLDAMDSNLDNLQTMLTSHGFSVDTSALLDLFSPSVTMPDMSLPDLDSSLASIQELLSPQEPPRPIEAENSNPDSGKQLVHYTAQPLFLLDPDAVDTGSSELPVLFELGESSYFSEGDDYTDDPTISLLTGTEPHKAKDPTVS

[3] = A549 cell cytotoxicity, dose response, cytotoxicity control, plate reader, cherry-pick, antagonist series (AID 743412); format: functional, cell-based
[4] = blockers of bursicon-stimulated LGR2 cAMP reporter – cell-based, HEK293, CRE-luciferase reporter, cherry pick, set 2, dose response (AID 743343); format: functional;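 note: transfected cells were stimulated with diluted bursicon conditioned medium after compound addition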
[5] = viability loss in HEK293 cells – cell-based, plate reader, cherry-picked samples, cytotoxicity control, dose response (AID 743446); format: functional
Estrogen receptor = molecular target: T3, Estrogen receptor (Homo sapiens, UniProt P03372);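 note: potency for inhibiting coactivator peptide recruitment to the receptor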
T3 sequence (P03372 whole entry): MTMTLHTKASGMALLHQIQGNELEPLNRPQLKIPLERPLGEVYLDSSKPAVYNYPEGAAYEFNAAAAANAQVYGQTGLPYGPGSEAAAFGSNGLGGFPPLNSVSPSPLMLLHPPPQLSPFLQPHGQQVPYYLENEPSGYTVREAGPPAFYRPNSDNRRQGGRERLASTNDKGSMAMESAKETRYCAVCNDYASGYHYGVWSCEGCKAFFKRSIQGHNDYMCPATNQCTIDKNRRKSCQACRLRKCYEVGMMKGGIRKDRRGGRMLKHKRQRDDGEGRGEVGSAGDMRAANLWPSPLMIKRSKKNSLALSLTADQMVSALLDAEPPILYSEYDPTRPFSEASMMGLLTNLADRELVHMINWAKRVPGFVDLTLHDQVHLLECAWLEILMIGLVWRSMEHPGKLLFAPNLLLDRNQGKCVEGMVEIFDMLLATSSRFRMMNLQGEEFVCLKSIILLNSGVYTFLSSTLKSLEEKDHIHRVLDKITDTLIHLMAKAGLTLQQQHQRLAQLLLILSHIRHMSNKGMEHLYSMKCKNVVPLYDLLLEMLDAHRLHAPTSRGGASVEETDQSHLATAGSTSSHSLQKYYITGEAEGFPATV

Estrogen receptor beta [6] = molecular target: T4, Estrogen receptor beta (Homo sapiens, UniProt Q92731);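 note: recombinant ER-beta bound to coactivator SRC1 peptide in presence of estradiol agonist; inhibitors block coactivator peptide binding and lower the FRET signal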
T4 sequence (Q92731 whole entry): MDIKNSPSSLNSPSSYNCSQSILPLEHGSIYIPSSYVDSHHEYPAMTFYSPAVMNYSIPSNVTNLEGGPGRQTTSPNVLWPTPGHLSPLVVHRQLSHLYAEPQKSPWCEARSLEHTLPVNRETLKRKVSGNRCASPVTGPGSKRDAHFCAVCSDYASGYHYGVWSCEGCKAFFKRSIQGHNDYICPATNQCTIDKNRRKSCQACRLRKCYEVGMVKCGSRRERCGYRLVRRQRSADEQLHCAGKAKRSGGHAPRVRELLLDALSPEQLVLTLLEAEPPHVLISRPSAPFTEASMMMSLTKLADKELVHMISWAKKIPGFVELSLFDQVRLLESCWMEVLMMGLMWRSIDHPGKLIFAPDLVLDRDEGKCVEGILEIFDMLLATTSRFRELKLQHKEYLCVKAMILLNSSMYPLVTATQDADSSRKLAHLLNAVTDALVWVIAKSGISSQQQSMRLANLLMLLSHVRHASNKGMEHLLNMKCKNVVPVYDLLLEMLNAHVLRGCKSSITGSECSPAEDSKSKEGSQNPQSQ

Estrogen receptor beta [7] = molecular target: T4, Estrogen receptor beta; test: blockers of SRC-3 recruitment to ERβ – biochemical, ELISA, streptavidin-HRP readout, orthogonal assay, confirmation (AID 1060)
[8] = molecular target: T5, Carboxy-terminal domain RNA polymerase II polypeptide A small phosphatase 1 (Homo sapiens, UniProt Q9GZU7); test: CTDSP1 inhibitors, concentration-response, biochemical, absorbance readout, ultra-high-throughput screen actives (AID 540297); format: functional
T5 sequence (Q9GZU7 whole entry): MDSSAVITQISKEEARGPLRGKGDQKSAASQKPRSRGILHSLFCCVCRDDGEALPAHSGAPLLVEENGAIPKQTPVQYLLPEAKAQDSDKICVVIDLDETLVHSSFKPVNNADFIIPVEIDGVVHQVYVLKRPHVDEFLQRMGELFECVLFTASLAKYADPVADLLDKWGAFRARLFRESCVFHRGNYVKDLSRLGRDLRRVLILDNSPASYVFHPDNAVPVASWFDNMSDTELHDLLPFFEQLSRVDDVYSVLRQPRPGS

Prothrombin = Prothrombin (Homo sapiens, UniProt P00734); test: Thrombin 1536 HTS Dose Response Confirmation. [Related pubchem assays: 1046 (Thrombin 1536 HTS; hits were confirmed in this assay)]; format: functional
[9] = HIV-1 Vif–A3G interaction blockers – biochemical, TR-FRET, GST-Vif 1-94, biotin-A3G peptide, dose response retest, primary screen (AID 1117319); format: functional;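 note: TR-FRET signal of purified GST-Vif binding a biotinylated A3G peptide; inhibitors lower the FRET signal by blocking Vif and A3G binding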
[10] = molecular target: Induced myeloid leukemia cell differentiation protein Mcl-1 (Homo sapiens, UniProt Q07820); format: functional
Chain of Induced myeloid leukemia cell differentiation protein Mcl-1 (Q07820 whole entry): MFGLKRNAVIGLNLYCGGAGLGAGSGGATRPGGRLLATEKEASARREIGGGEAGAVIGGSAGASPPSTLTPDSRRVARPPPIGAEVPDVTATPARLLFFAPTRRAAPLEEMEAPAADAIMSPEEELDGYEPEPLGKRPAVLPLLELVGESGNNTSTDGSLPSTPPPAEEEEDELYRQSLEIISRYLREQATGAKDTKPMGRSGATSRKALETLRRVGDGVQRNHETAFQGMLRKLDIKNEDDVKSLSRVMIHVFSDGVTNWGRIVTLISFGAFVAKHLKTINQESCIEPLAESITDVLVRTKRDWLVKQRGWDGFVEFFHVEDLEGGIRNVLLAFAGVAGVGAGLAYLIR

Protein skinhead-1 = molecular target: T6, Protein skinhead-1 (Caenorhabditis elegans, UniProt P34707); format: functional
T6 sequence (P34707 whole entry): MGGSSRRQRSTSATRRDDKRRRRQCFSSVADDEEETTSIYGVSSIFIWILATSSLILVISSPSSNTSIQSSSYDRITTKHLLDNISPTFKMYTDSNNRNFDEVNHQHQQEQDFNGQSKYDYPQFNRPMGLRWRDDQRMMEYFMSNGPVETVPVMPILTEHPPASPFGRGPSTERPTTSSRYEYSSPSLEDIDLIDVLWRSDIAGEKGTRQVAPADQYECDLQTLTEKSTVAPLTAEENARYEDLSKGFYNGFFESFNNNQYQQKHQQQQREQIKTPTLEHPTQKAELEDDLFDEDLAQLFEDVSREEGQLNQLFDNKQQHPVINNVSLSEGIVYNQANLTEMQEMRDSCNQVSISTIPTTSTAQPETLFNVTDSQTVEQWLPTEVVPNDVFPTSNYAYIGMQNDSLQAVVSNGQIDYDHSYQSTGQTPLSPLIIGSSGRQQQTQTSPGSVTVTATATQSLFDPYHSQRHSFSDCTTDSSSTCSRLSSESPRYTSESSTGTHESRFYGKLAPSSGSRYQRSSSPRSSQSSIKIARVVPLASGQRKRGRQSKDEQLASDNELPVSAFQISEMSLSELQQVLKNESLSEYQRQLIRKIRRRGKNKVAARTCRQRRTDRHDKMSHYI

[11] = blockade of melanocortin 4 receptor signaling – cell-based, plate reader, cherry pick, counter-screen for LGR2 antagonist project, dose response (AID 743444); format: functional;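 note: transfected HEK 293 cells stimulated with alpha-MSH peptide; potency of inhibitors of the alpha-MSH evoked signal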
[12] = molecular target: Luciferin 4-monooxygenase (Photinus pyralis, UniProt P08659); test: inhibition of purified Photinus pyralis luciferase – biochemical, luminescence, dose response (AID 1891)
Chain of Luciferin 4-monooxygenase (P08659 whole entry): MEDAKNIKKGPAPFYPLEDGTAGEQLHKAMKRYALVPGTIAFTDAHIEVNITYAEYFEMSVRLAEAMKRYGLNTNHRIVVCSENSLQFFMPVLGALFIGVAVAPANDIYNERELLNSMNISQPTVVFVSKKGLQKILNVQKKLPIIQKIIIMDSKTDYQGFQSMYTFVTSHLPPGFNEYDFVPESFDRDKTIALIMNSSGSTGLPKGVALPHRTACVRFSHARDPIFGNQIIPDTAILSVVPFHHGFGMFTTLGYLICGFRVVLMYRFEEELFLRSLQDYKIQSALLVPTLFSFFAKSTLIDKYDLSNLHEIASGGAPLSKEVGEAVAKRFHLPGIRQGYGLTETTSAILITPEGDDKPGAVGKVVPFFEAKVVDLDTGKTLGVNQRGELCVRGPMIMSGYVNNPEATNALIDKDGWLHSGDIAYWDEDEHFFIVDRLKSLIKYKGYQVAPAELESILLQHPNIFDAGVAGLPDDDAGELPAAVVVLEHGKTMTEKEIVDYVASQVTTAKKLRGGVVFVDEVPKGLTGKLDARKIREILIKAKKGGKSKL

[13] = Luminescence Cell-Based Dose Confirmation HTS to Identify Inhibitors of Platelet Dense Granule Release. [Related pubchem assays: 1663 (Primary HTS), 1678 (Summary of Project)]; format: functional
[14] = Trypanosoma cruzi growth suppression in host cells – NIH3T3 host cells, beta-gal luminescence, confirmation (AID 2044); format: functional, cell-based;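 note: intracellular parasites grown in NIH/3T3 mouse fibroblasts as host cells; luminescent beta-galactosidase reporter signal from transgenic T. cruzi replicating inside host cells; inhibitors lower the luminescence signal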
[15] = NIH3T3 cell viability loss – ATP luminescence, mouse fibroblasts, counter-screen, dose response (AID 2010); format: functional, cell-based;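 note: cells exposed to compound for about 90 hours before reading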
[16] = Luminescence Cell-Based Dose Retest to Confirm Inhibitors of Cancer Stem Cells. [Related pubchem assays (depositor defined):AID2717, AID2721]; format: functional; details: Homo sapiens
[17] = molecular target: T7, Small ubiquitin-related modifier 1 (Homo sapiens, UniProt P63165); test: SUMO1 protein interaction blockers, potency – biochemical, fluorescence polarization, uHTS hits, dose response (AID 624382); format: functional; details: read-out: IC50_Mean
T7 sequence (P63165 whole entry): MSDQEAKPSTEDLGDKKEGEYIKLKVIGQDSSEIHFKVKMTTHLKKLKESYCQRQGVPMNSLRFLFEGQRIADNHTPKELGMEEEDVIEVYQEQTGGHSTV

[18] = molecular target: T7, Small ubiquitin-related modifier 1; test: SUMO1 protein-protein binding blockers, potency – biochemical, FRET, dose response (AID 624383); format: functional; details: read-out: IC50_Mean
Kallikrein-7 = Kallikrein-7 (Homo sapiens, UniProt P49862); test: Fluorescence Intensity-based biochemical primary high throughput dose response assay to identify activators of kallikrein-7 (K7) zymogen.
Chain of Kallikrein-7 (P49862 whole entry): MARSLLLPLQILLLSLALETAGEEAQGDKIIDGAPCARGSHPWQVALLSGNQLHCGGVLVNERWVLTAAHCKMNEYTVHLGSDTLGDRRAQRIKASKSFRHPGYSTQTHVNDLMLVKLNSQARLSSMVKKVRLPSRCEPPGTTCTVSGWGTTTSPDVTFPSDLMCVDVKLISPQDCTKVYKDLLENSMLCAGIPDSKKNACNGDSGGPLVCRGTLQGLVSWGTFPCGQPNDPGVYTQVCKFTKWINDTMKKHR

H4 = test: Luminescence Cell-Based Dose Response HTS to Identify Activators of 5'UTR Stem-Loop Driven Prion Protein mRNA Translation in H4 Neuroglioblastoma Cells. [Related pubchem assays: 1829 (Project Summary), 1814 (Primary HTS)]; format: functional; details: Homo sapiens
[19] = molecular target: T8, Low molecular weight phosphotyrosine protein phosphatase (Homo sapiens, UniProt P24666); format: functional; details: read-out: IC50_Mean
T8 sequence (P24666 whole entry): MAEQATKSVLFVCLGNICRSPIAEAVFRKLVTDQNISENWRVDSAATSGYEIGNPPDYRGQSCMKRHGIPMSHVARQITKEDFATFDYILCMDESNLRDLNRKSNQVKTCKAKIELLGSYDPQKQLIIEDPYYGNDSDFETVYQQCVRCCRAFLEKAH

[20] = molecular target: T8, Low molecular weight phosphotyrosine protein phosphatase; format: functional; details: read-out: IC50_Mean; remark: listed apart in the source
[21] = growth inhibition of yeast DHODH-expressing 3D7 parasites – SYBR Green, dry powder samples, dose response (AID 1159570); format: functional, cell-based;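 note: parasite growth measured after 72 hours of compound exposure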
[22] = P. falciparum Dd2 growth inhibitors, dose response, SYBR Green, cherry-picked samples (AID 1159567); format: functional, cell-based
[23] = Dd2 malaria parasite growth inhibition potency – SYBR Green, dry powder samples, dose response (AID 1159566); format: functional, cell-based;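 note: potency for growth inhibition with lower SYBR green DNA signal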
[24] = growth inhibition of PfATP4-mutant resistant parasites – NITD609-resistant line, SYBR Green, dry powder, dose response (AID 1159571); format: functional, cell-based;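 note: parasites synchronized at ring stage by sorbitol before testing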

For `CC1=NN2C(=N)/C(=C\c3ccc(SCc4ccccc4)o3)C(=O)N=C2S1`, the IC50 [1] was > 50 µM (not active).
With `COc1cc2c(cc1OC)CN(c1ccc([N+](=O)[O-])c(C(F)(F)F)c1)CC2` the EC50 [2] was 43.1 µM (active), the AC50 [3] was > 52 µM (inactive) and the AC50 [4] was 29.6 µM (active). The AC50 [5] was > 52 µM (inactive).
In the case of `CC1CCc2c(sc(NC(=O)c3ccc(Cn4cc([N+](=O)[O-])cn4)o3)c2C#N)C1` (configuration not stated), the IC50 (Estrogen receptor) is reported as 8.35 µM (active), the IC50 (Estrogen receptor beta [6]) is reported as 2.32 µM (active) and the IC50 (Estrogen receptor beta [7]) is reported as 11.1 µM (not active). The IC50 [8] was 4.29 µM (active).
In the case of `Cc1ccc(C)n1-c1ccc(-c2nnco2)cc1`, the IC50 (Prothrombin) is reported as > 50 µM (not active).
With `CN1C(=O)CC(N2CCN(C(=O)c3ccccc3)CC2)C1=O` (configuration not stated) the IC50 [9] was > 100 µM (active).
With `Cc1cc(=O)[nH]c(SCC(=O)NCC2CCCO2)n1` (configuration not stated) the IC50 (Prothrombin) was > 50 µM (not active).
In the case of `O=C1CC(N2CCN(S(=O)(=O)c3ccccc3)CC2)C(=O)N1c1ccccc1` (configuration not stated), the IC50 [10] is reported as 9.4 µM (not active).
For `C=CCn1c(COc2ccccc2F)nnc1SCC(=O)NC(=O)NCc1ccco1`, the IC50 (Estrogen receptor beta [6]) was 3.27 µM (active), the IC50 (Estrogen receptor beta [7]) was > 50 µM (not active) and the IC50 [8] was 12.2 µM (active).
In the case of `Clc1ccc(-c2cc(-c3ccccn3)on2)c(Cl)c1`, the IC50 (Protein skinhead-1) is reported as > 100 µM (inactive), the AC50 [3] is reported as > 52 µM (inactive) and the AC50 [4] is reported as 3.73 µM (active). The AC50 [11] was 7.08 µM (active) and the AC50 [5] was > 52 µM (inactive).
With `CCOC(=O)CSc1nnc(CNC(=O)c2ccc(S(=O)(=O)N3CCCC3)cc2)n1C` the IC50 (Prothrombin) was > 50 µM (not active).
In the case of `Cc1ccc(S(=O)(=O)N2CCN(Cc3nc(O)c4c(C)c(C)sc4n3)CC2)cc1`, the IC50 [9] is reported as > 100 µM (active).
For `O=C(Nc1ccc2c(c1)OCO2)c1cc(-c2ccc(O)cc2)on1`, the EC50 [12] was > 112 µM (not active), the EC50 [13] was > 112 µM (not active) and the EC50 [14] was < 0.1 µM (active). The EC50 [15] was 6.74 µM (active), the AC50 [16] was 0.356 µM (active) and the IC50 [17] was > 66.6 µM (inactive). The IC50 [18] was 11.5 µM (active), the EC50 (Kallikrein-7) was 62.9 µM (inactive) and the EC50 (cells) was > 10 µM (not active).
With `O=c1c(Cl)c(N/N=C/c2ccc(Cl)cc2)cnn1-c1ccccc1` the EC50 (H4) was > 120 µM (not active), the IC50 [10] was 1.93 µM (active) and the IC50 [19] was > 80 µM (inactive). The IC50 [20] was 35 µM (inactive).
With `COCC#Cc1ccc(CC[C@H]2O[C@H]3CC[C@H](CO)O[C@H]3C[C@@H]2n2cc(C3CC3)nn2)cc1` the AC50 [21] was 3.37 µM (active), the AC50 [22] was 2.33 µM (active) and the AC50 [23] was 2.15 µM (active). For the same compound, the AC50 [24] was 3.76 µM (active).
With `OC[C@H]1Nc2ccc(C#Cc3cccnc3)cc2[C@H]2NCC[C@H]21` the AC50 [21] was 8.84 µM (active), the AC50 [22] was 1.08 µM (active) and the AC50 [23] was 7.59 µM (active). The AC50 [24] was 11.2 µM (active).
In the case of `CC[n+]1ccccc1/C=C1\Sc2ccc(C)cc2N1C`, the EC50 [14] is reported as < 0.1 µM (active), the EC50 [15] is reported as > 60 µM (not active) and the EC50 (cells) is reported as 0.022 µM (active).
